Patent publication US20250009697A1, “COMPOSITION FOR INCREASING AMOUNT OF FOOD INGESTED AND/OR IMPROVING ANOREXIA, AND COMPOSITION FOR ACTIVATING TRANSIENT RECEPTOR POTENTIAL ANKYRIN 1” (HOUSE FOODS GROUP INC., priority 2021, published 2025)
Each block holds one compound with its values, some of them ahead of it.

How the values were obtained:
Assay type in all cases: cell-based
Human TRPA1 (hTRPA1) [1] = biological target: T1, Human TRPA1 (hTRPA1) (Homo sapiens, UniProt O75762); experiment: TRPA1 Activation Test 1: intracellular Ca2+ imaging assay 1-1 to 1-3, hTRPA1 stably expressing cell line; conditions: test sample 30 μM; for TRPA1 activation rate, With antagonist: A-967079 1 μM
T1 construct: expressed in transfected cells
Procedure: (§1) DNAs encoding genes described in the following Table 2 were inserted into pcDNA 5/TO vector (Invitrogen) to prepare various expression vectors.
(§2) These expression vectors were transfected into T-REx™_293 cells (Invitrogen) by a conventional method using Lipofectamine LTX (Invitrogen). Then, various transfectants were cultured and cloned by a conventional method using Dulbecco's Modified Eagle Medium (DMEM, Nacalai Tesque Inc.), containing 10% fetal bovine serum (FBS, Cytiva), […] of hygromycin B, and 5 μg/mL of blasticidin S, as a drug selection medium to obtain a hTRPA1 stably expressing cell line, a hTRPV1 stably expressing cell line, and a hTRPM8 stably expressing cell line.
A hTRPA1 stably expressing cell line in which expression of hTRPA1 had been induced in advance by a conventional method was prepared in a 96 well clear bottom plate (black), and a hTRPA1 activating action of the purified oxylipin or the R2 fraction (both were assumed to contain a compound having a molecular weight of 294) obtained in the above item 1 was tested. Specifically, after each well was washed with PBS, 50 μL of an assay buffer (Hanks' balanced salt solution containing no calcium ions or magnesium ions that contained 1 mM of CaCl2 dihydrate, 20 mM of HEPES, and 0.1% BSA) containing calcium fluorescent indicator Calbryte™ 520 AM (produced by AAT Bioquest) in a final concentration of 4 μM was added, followed by incubating at 33° C. for 45 minutes. After washing with the assay buffer, 100 μL of the assay buffer was added to each well. This plate was set to FlexStation 3 (Molecular Devices, LLC), and a fluorescence intensity (excitation wavelength 490 nm, fluorescence wavelength 525 nm) at 31° C. was measured every two seconds, and 30 seconds after the start of the measurement, 100 μL of an assay buffer containing a test sample which was prepared to have a certain final concentration or DMSO was added. Then, a well in which an assay buffer containing ionomycin (having a final concentration of 10 μM after the addition) instead of the test samples was added was also prepared as a reference for fluorescence intensity.
(§3) The measurement was continued from the start of the measurement up to 120 seconds, and the TRPA1 activation ability of the test samples was calculated in accordance with the following formula.
(§4) Activation rate (%)=(Fmax[s]−F0)/(Fmax[i]−F0)×100 • Fmax[s]: The maximum value of the fluorescence intensity when the test sample or the positive control was added • F0: The average value of the fluorescence intensity for 20 seconds after the start of the measurement (base line) • Fmax[i]: The maximum value of the fluorescence intensity when ionomycin was added
The TRPA1 activation ability was measured in the same manner as in the above (2) except that the R2 fraction or allyl isothiocyanate (AITC) was used as a test sample and the test was conducted with A-967079 (1 μM), which is a TRPA1-specific antagonist, or without A-967079. In addition, regarding the R2 fraction, the hTRPV1 stably expressing cell line or the hTRPM8 stably expressing cell line was used instead of the hTRPA1 stably expressing cell line to conduct the same test. Note that as positive controls, capsaicin was used for the hTRPV1 stably expressing cell line and icilin was used for the hTRPM8 stably expressing cell line.
The TRPA1 activation ability was measured in the same manner as in the above (2) except that each isolated compound or allyl isothiocyanate (AITC) was used as a test sample and the test was conducted with A-967079 (1 μM), which was a TRPA1-specific antagonist, or without A-967079.

Human TRPA1 (hTRPA1) [2] = biological target: T1, Human TRPA1 (hTRPA1); experiment: TRPA1 Activation Test 2: intracellular Ca2+ imaging assay 2-1 to 2-3, hTRPA1 stably expressing cell line; conditions: test sample 30 μM
Procedure: as §1, §2
(§5) A hTRPA1 stably expressing cell line in which expression of hTRPA1 had been induced in advance by a conventional method was prepared in a 96 well clear bottom plate, and the hTRPA1 activating action of rhein (produced by Tokyo Chemical Industry Co., Ltd.) was tested. Specifically, after each well was washed with PBS, 50 μL of an assay buffer (Hanks' balanced salt solution containing no calcium ion or magnesium ion that contained 1 mM of CaCl2 dihydrate, 20 mM of HEPES, and 0.1% BSA) containing calcium fluorescent indicator Calbryte™ 520 AM (produced by AAT Bioquest) in a final concentration of 4 μM was added, followed by incubating at 33° C. for 45 minutes. After washing with the assay buffer, 100 μL of the assay buffer was added to each well. This plate was set to FlexStation 3 (Molecular Devices, LLC), and a fluorescence intensity (excitation wavelength 490 nm, fluorescence wavelength 525 nm) at 31° C. was measured every two seconds, and 30 seconds after the start of the measurement, 100 μL of an assay buffer containing a test sample (allyl isothiocyanate (AITC) of positive control or rhein) which was prepared to have a certain final concentration or DMSO was added. Then, a well in which an assay buffer containing ionomycin (having a final concentration of 10 μM after the addition) instead of the test samples was added was also prepared as a reference for fluorescence intensity.
as §3
as §4, with “or” for “or the”
(§6) The TRPA1 activation ability of each test sample was measured in the same manner as in the above (2) except the test was conducted with A-967079 (1 μM), which is a TRPA1-specific antagonist, or without A-967079. In addition, intracellular Ca^2+ imaging assay was conducted in the same manner as in the above (2) except that a hTRPV1 stably expressing cell line, a hTRPM8 stably expressing cell line, or a Mock cell was used instead of the hTRPA1 stably expressing cell line. Note that capsaicin was used as positive control for the hTRPV1 stably expressing cell line, and icilin was used as positive control for the hTRPM8 stably expressing cell line.
A TRPA1 activation ability was measured in the same manner as in the above (2) by using, as a test sample, rhein or compounds described in the following Table 10, which had anthraquinone structures similar to rhein, at a concentration of 200 μM of the test sample.

Mock cell = experiment: TRPA1 Activation Test 2: intracellular Ca2+ imaging assay 2-2, Mock cell; conditions: test sample 30 μM; Table 9
Procedure: as §5, §3
Activation rate (%)=(Fmax[s]−F0)/(Fmax[i]−F0)×100 • Fmax[s]: The maximum value of the fluorescence intensity when the test sample or positive control was added • F0: The average value of the fluorescence intensity for 20 seconds after the start of the measurement (base line) • Fmax[i]: The maximum value of the fluorescence intensity when ionomycin was added […]

Human TRPV1 (hTRPV1) [3] = biological target: T2, Human TRPV1 (hTRPV1) (Homo sapiens, UniProt Q8NER1); experiment: TRPA1 Activation Test 2: intracellular Ca2+ imaging assay 2-2, hTRPV1 stably expressing cell line; conditions: test sample 1 μM; Table 9
T2 construct: expressed in transfected cells
Procedure: as §1, §2
as §5, with “This plate was set to FlexStation 3 (Molecular Devices, LLC), and a fluorescence intensity (excitation wavelength 490 nm, fluorescence wavelength 525 nm) at 31° C. was measured every two seconds, and 30 seconds after the start of the measurement, 100 μL of an assay buffer containing a test sample (allyl isothiocyanate (AITC) of positive control or rhein) which was prepared to have a certain final concentration or DMSO was added.” left out
as §3
as §4, with “or” for “or the”
as §6, with “Note that capsaicin was used as positive control for the hTRPV1 stably expressing cell line, and icilin was used as positive control for the hTRPM8 stably expressing cell line.” left out

Human TRPV1 (hTRPV1) [4] = biological target: T2, Human TRPV1 (hTRPV1); experiment: TRPA1 Activation Test 1: intracellular Ca2+ imaging assay 1-2, hTRPV1 stably expressing cell line; conditions: test sample 1 μM; Table 5
Procedure: as §1, §2
After washing with the assay buffer, 100 μL of the assay buffer was added to each well. […] Then, a well in which an assay buffer containing ionomycin (having a final concentration of 10 μM after the addition) instead of the test samples was added was also prepared as a reference for fluorescence intensity.
as §3

Human TRPM8 (hTRPM8) [5] = biological target: T3, Human TRPM8 (hTRPM8) (Homo sapiens, UniProt Q7Z2W7); experiment: TRPA1 Activation Test 1: intracellular Ca2+ imaging assay 1-2, hTRPM8 stably expressing cell line; conditions: test sample 5 μM; Table 5
T3 construct: expressed in transfected cells
Procedure: as §1, §2
A hTRPA1 stably expressing cell line in which expression of hTRPA1 had been induced in advance by a conventional method was prepared in a 96 well clear bottom plate (black), and a hTRPA1 activating action of the purified oxylipin or the R2 fraction (both were assumed to contain a compound having a molecular weight of 294) obtained in the above item 1 was tested. […] Then, a well in which an assay buffer containing ionomycin (having a final concentration of 10 μM after the addition) instead of the test samples was added was also prepared as a reference for fluorescence intensity. […]

Human TRPM8 (hTRPM8) [6] = biological target: T3, Human TRPM8 (hTRPM8); experiment: TRPA1 Activation Test 2: intracellular Ca2+ imaging assay 2-2, hTRPM8 stably expressing cell line; conditions: test sample 5 μM; Table 9
Procedure: as §1, §2
as §5, with “This plate was set to FlexStation 3 (Molecular Devices, LLC), and a fluorescence intensity (excitation wavelength 490 nm, fluorescence wavelength 525 nm) at 31° C. was measured every two seconds, and 30 seconds after the start of the measurement, 100 μL of an assay buffer containing a test sample (allyl isothiocyanate (AITC) of positive control or rhein) which was prepared to have a certain final concentration or DMSO was added.” left out
as §3
as §4, with “or” for “or the”
as §6, with “Note that capsaicin was used as positive control for the hTRPV1 stably expressing cell line, and icilin was used as positive control for the hTRPM8 stably expressing cell line.” left out

T1 sequence (O75762 whole entry): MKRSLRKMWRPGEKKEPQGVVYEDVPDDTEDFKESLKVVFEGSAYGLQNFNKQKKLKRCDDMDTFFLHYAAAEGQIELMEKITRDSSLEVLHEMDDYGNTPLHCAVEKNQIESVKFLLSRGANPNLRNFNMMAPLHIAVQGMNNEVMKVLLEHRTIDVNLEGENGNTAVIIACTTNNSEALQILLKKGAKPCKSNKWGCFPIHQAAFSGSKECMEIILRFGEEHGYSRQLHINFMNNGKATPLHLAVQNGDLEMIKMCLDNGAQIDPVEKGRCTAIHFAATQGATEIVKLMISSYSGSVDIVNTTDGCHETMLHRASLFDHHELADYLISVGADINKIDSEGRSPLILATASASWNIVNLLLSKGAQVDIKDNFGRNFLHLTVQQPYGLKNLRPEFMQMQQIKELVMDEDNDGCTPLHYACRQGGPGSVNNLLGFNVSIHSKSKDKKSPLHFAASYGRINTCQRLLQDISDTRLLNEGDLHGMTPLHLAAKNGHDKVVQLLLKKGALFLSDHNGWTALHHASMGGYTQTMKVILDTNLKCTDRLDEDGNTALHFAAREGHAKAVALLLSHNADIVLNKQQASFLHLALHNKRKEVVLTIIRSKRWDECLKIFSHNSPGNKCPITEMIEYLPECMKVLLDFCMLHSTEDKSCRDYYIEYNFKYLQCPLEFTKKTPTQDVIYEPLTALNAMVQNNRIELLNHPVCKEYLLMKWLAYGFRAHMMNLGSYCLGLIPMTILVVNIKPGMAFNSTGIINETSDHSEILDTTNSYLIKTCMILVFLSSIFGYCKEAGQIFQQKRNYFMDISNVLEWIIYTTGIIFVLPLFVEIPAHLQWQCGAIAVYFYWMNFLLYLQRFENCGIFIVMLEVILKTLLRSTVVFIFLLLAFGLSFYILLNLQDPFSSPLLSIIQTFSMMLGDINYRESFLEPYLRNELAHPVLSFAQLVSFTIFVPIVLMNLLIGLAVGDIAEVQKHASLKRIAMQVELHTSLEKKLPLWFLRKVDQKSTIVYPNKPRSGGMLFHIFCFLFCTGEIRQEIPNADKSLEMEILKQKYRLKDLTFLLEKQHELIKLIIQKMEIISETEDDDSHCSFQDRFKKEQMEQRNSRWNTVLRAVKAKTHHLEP
T3 sequence (Q7Z2W7 whole entry): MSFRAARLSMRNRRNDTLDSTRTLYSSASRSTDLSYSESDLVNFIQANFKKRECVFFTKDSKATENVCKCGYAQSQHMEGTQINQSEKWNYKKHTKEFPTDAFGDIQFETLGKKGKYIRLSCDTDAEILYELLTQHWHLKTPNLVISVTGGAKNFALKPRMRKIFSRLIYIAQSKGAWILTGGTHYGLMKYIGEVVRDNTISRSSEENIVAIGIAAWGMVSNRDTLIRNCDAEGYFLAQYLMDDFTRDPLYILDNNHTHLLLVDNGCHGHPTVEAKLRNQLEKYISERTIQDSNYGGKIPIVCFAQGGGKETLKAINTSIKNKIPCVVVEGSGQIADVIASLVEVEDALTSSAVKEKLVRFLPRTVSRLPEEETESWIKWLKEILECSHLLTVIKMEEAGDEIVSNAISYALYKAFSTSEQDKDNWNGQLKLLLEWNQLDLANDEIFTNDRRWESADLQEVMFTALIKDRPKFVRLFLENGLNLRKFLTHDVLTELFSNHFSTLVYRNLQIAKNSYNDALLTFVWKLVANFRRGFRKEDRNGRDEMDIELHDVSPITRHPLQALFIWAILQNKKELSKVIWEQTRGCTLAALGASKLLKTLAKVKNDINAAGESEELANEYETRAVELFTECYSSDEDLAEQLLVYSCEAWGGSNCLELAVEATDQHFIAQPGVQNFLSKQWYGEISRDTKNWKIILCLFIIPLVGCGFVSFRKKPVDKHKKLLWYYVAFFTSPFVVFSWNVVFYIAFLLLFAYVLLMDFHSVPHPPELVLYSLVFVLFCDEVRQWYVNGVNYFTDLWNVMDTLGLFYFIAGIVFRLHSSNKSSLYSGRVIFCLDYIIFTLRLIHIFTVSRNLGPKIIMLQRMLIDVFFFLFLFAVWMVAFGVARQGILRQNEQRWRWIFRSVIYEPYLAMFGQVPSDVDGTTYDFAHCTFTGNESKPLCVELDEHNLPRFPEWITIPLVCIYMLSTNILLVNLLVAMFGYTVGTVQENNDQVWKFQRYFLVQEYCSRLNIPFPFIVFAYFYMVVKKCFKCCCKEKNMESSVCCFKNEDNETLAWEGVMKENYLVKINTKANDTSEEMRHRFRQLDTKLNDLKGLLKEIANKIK
T2 sequence (Q8NER1 whole entry): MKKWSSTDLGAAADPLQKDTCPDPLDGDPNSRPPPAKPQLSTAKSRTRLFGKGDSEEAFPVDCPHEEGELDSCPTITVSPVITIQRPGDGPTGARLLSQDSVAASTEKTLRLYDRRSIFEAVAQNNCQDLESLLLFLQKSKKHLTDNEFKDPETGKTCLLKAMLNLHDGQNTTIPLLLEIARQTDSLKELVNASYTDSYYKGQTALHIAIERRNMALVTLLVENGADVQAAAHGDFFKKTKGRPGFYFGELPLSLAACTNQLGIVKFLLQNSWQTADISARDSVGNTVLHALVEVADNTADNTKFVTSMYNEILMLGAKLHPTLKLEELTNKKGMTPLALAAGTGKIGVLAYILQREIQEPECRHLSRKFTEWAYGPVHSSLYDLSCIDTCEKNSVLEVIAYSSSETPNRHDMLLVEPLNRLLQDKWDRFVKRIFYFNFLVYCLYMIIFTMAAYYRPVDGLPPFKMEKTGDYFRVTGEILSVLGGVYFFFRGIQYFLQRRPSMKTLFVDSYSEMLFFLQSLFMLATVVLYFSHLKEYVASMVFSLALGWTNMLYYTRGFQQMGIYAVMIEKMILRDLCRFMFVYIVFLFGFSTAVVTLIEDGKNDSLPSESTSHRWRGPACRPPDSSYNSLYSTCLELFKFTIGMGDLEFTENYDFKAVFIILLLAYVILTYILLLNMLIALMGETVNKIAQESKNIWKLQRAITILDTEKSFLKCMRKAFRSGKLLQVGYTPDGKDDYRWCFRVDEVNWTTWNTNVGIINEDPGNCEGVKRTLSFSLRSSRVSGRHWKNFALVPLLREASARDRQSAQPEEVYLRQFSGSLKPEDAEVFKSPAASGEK

Compound: C=CCN=C=S [AITC, allyl isothiocyanate, reference compound]
TRPA1 activation rate, With antagonist (Human TRPA1 (hTRPA1) [1]; Table 4): 1.30 ± 0.639% | TRPA1 activation rate, With antagonist (Human TRPA1 (hTRPA1) [1]; Table 6): 1.44 ± 0.163% | TRPA1 activation rate, Without antagonist (Human TRPA1 (hTRPA1) [1]; Table 4): 160 ± 2.58% | TRPA1 activation rate, Without antagonist (Human TRPA1 (hTRPA1) [1]; Table 6): 128 ± 2.99% | TRPA1 activation rate, With antagonist (Human TRPA1 (hTRPA1) [2]; A-967079 1 μM, Table 8): 15.7 ± 7.81 % | TRPA1 activation rate, With antagonist (Human TRPA1 (hTRPA1) [2]; A-967079, Table 11): 0.811 ± 0.0386 % | TRPA1 activation rate (Human TRPA1 (hTRPA1) [2]; Table 7): 101 ± 3.66% | TRPA1 activation rate, Without antagonist (Human TRPA1 (hTRPA1) [2]; Table 8): 104 ± 6.10% | TRPA1 activation rate, Without antagonist (Human TRPA1 (hTRPA1) [2]; Table 11): 115 ± 6.15% | Activation rate, Mock (Mock cell): 6.40 ± 0.143%

TRPV1 activation rate (Human TRPV1 (hTRPV1) [3]): 96.3 ± 3.24% | TRPV1 activation rate (Human TRPV1 (hTRPV1) [4]): 113 ± 1.16%
Compound: COc1cc(CNC(=O)CCCC/C=C/C(C)C)ccc1O [Capsaicin, capsaicin, reference compound]

TRPM8 activation rate (Human TRPM8 (hTRPM8) [5]): 79.8 ± 1.71% | TRPM8 activation rate (Human TRPM8 (hTRPM8) [6]): 104 ± 2.19^ %
Compound: O=C1NC(c2cccc([N+](=O)[O-])c2)=CCN1c1ccccc1O [Icilin, icilin, reference compound]
